Laboratory results published in patent publication US4877727A, “Substrate for determining leucine aminopeptidase or gamma-glutamyltranspeptase activity” (Kyowa Medex Co., Ltd., priority 1984, dated 1989).
≈ marks a conversion by molar mass, not a printed value. Each block holds one compound with its values, some of them ahead of it.

Legend:
[1] = target: T1, γ-glutamyltranspeptidase (γ-GTP) (Homo sapiens, UniProt P19440); test: γ-GTP determination in serum (Example 3); format: biochemical; settings: found with the compound as substrate; standard serum 235 mU/ml; 37° C., 5 minutes; wavelength of Table 2
T1 construct: from tissue; host or cells: serum
Protocol: In this example, 500 mg of compound Nos. 1, 3, 5, 7 and 9 each and 500 mg of glycylglycine were dissolved in 100 ml (pH=7.7) and 0.1M phosphate buffer. The resultant solutions were designated A-1, A-3, A-5, A-7 and A-9, respectively. 50 mg of 3-{N-(m-tolyl)-N-ethyl}amino-2-hydroxypropane sulfonic acid was dissolved in 100 ml of phosphate buffer solution to obtain solution B. 50 mg/ml sodium meta-periodate containing 1N-HCl solution was prepared as solution C.
6 ml of solution A-1, A-3, A-5, A-7 or A-9 was equally poured to 3 test tubes. The samples were incubated at 37° C. and to the solution was added […] of (a) serum sample (b) standard serum or (c) water. The mixtures were stirred and heated for 5 minutes. After 5 minutes had passed, 1 ml of solution B and 1 ml of solution C were added to each of the mixtures and the mixtures were incubated for 10 minutes after stirring. As the standard serum, a serum having 235 mU/ml of γ-GTP was used.
The γ-GTP activity of the serum sample can be calculated by the following equation. [formula]

Stability of pigment = format: physicochemical
Solubility of substrate = format: physicochemical; settings: read-out: S: Solubility
[2] = Maximum wavelength of formed pigment; format: physicochemical
Protocol: 50 μl of 1 mM each free compound was added to 3 ml of 0.1M phosphate buffer containing 0.5 mg/ml EMSE and 1 U/ml laccase and the mixture was incubated at 37° C. for 5 minutes. The absorption of the reaction solution at λmax was measured. As a control, 5-aminosalicylic acid was used and the reaction of the compound with 2,6-xylenol was carried out in the presence of metaperiodate under strong alkaline conditions.

[3] = system: leucine aminopeptidase (LAP); test: LAP determination in serum, end-point colour reactions (Example 2); format: biochemical
Protocol: The reagent solution wherein laccase was excluded from the reagent solution of Example 1 was used.
3 ml of the reagent solution was incubated at 37° C. for 10 minutes and to the mixture was added 0.05 ml of a serum sample. The mixture was immediately stirred and incubated at 37° C. for 10 minutes. After ten minutes passed,
(a) 0.03 ml of 10 mg/ml α-naphthol methanol solution and 0.1 ml of 1N-NaOH solution containing 50 mg/ml sodium salt of meta-periodate were added to the solution. The mixture was incubated at 37° C. for 10 minutes and the absorption of the reaction solution at 600 nm was measured.
(b) 1 ml of 10 mg/ml p-N,N-dimethylamino cinnamaldehyde ethanol solution and 1 ml of 0.4N-HCl solution were added to the solution and the mixture was incubated at 37° C. for 10 minutes. The absorption of the reaction solution at 570 nm was measured.
(c) 0.5 ml of 1N-HCl and 0.5 ml of 1 mg/ml sodium nitrite were added to the solution and the mixture was incubated at 37° C. for 10 minutes. Then 0.1 ml of 1 mg/ml 3,5-xylenol ethanol solution was added thereto and the absorption of the reaction solution at 650 nm was measured.

[4] = system: leucine aminopeptidase (LAP); test: LAP determination in serum, absorption change per minute (Example 1); format: biochemical
Protocol: 3 ml of the reagent solution was incubated at 37° C. for ten minutes. To the solution was added 0.05 ml of a serum sample and the mixture was immediately stirred and the change in absorption of the solution at 745 nm was measured for one minute.
LAP activity in the sample can be calculated using the following equation: [formula] ΔE means the amount of absorption change per minute.
The same procedures as described above were repeated except that the following materials were used. […]

[5] = Serum(1), 37° C., 745 nm Compound No. 2, 635 nm (a), 565 nm (b), 675 nm (c)

T1 sequence (P19440 1-380 limits assumed): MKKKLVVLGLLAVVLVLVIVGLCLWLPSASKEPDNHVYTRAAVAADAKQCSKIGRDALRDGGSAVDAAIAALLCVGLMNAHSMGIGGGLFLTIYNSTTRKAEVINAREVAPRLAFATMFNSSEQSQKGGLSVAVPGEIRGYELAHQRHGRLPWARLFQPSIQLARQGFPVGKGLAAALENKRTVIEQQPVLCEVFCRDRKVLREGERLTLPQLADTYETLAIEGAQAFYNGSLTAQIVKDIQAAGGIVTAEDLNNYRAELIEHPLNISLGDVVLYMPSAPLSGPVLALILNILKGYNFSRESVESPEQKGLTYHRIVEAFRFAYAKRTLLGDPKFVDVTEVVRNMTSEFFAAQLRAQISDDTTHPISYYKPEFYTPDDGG
T1 sequence (P19440 381-569 limits assumed): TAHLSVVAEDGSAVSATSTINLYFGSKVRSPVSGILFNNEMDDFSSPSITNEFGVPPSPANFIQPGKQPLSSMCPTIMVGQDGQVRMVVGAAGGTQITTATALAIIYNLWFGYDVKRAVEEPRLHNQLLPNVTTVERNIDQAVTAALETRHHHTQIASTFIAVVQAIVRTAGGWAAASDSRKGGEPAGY

SMILES: N[C@@H](CCC(=O)Nc1ccc(N(CCCS(=O)(=O)O)CCCS(=O)(=O)O)cc1)C(=O)O [compound 1]
- γ-GTP activity of the serum sample [1]: 231 mU/ml
- ST: Stability of pigment (Stability of pigment): > 98%
- solubility (Solubility of substrate): > 200 mg/mL
- λmax: Maximum wavelength [2]: 745 nm

SMILES: CC(C)C[C@H](N)C(=O)Nc1ccc(N(CCCS(=O)(=O)O)CCCS(=O)(=O)O)c(Cl)c1 [compound 10]
- ST: Stability of pigment (Stability of pigment): > 98%
- solubility (Solubility of substrate): 125 mg/mL (≈ 250 mM)
- λmax: Maximum wavelength [2]: 685 nm

SMILES: COc1cc(N(CCCCS(=O)(=O)O)CCCCS(=O)(=O)O)c(C)cc1NC(=O)[C@@H](N)CC(C)C [compound 14]
- ST: Stability of pigment (Stability of pigment): > 98%
- solubility (Solubility of substrate): > 200 mg/mL
- λmax: Maximum wavelength [2]: 720 nm

SMILES: CC(C)C[C@H](N)C(=O)Nc1ccc(N(CCCS(=O)(=O)O)CCCS(=O)(=O)O)cc1 [Compound No. 2, L-leucyl-p-N,N-disulfopropyl aminoanilide]
- Ratio of sensitivity ([3]; Example 1 method (EMSE + laccase, 745 nm), reference): 100
- absorption of the reaction solution ([3]; method (a) α-naphthol + meta-periodate/NaOH, 600 nm, Serum 1): 0.331
- absorption of the reaction solution ([3]; method (a), 600 nm, Serum 2): 0.291
- absorption of the reaction solution ([3]; method (a), 600 nm, Serum 3): 0.389
- absorption of the reaction solution ([3]; method (a), 600 nm, Serum 4): 0.395
- absorption of the reaction solution ([3]; method (a), 600 nm, Serum 5): 0.277
- absorption of the reaction solution ([3]; method (a), 600 nm, Serum 6): 0.322
- absorption of the reaction solution ([3]; method (a), 600 nm, Serum 7): 0.291
- absorption of the reaction solution ([3]; method (a), 600 nm, Serum 8): 0.386
- absorption of the reaction solution ([3]; method (a), 600 nm, Serum 9): 0.392
- absorption of the reaction solution ([3]; method (a), 600 nm, Serum 10): 0.346
- Ratio of sensitivity ([3]; method (a), relative to Example 1 = 100): 73
- absorption of the reaction solution ([3]; method (b) p-N,N-dimethylamino cinnamaldehyde/HCl, 570 nm, Serum 1): 0.386
- absorption of the reaction solution ([3]; method (b), 570 nm, Serum 2): 0.336
- absorption of the reaction solution ([3]; method (b), 570 nm, Serum 3): 0.466
- absorption of the reaction solution ([3]; method (b), 570 nm, Serum 4): 0.460
- absorption of the reaction solution ([3]; method (b), 570 nm, Serum 5): 0.320
- absorption of the reaction solution ([3]; method (b), 570 nm, Serum 6): 0.372
- absorption of the reaction solution ([3]; method (b), 570 nm, Serum 7): 0.333
- absorption of the reaction solution ([3]; method (b), 570 nm, Serum 8): 0.453
- absorption of the reaction solution ([3]; method (b), 570 nm, Serum 9): 0.460
- absorption of the reaction solution ([3]; method (b), 570 nm, Serum 10): 0.405
- Ratio of sensitivity ([3]; method (b), relative to Example 1 = 100): 85
- absorption of the reaction solution ([3]; method (c) sodium nitrite/HCl then 3,5-xylenol, 650 nm, Serum 1): 0.277
- absorption of the reaction solution ([3]; method (c), 650 nm, Serum 2): 0.241
- absorption of the reaction solution ([3]; method (c), 650 nm, Serum 3): 0.330
- absorption of the reaction solution ([3]; method (c), 650 nm, Serum 4): 0.325
- absorption of the reaction solution ([3]; method (c), 650 nm, Serum 5): 0.230
- absorption of the reaction solution ([3]; method (c), 650 nm, Serum 6): 0.270
- absorption of the reaction solution ([3]; method (c), 650 nm, Serum 7): 0.244
- absorption of the reaction solution ([3]; method (c), 650 nm, Serum 8): 0.325
- absorption of the reaction solution ([3]; method (c), 650 nm, Serum 9): 0.331
- absorption of the reaction solution ([3]; method (c), 650 nm, Serum 10): 0.292
- Ratio of sensitivity ([3]; method (c), relative to Example 1 = 100): 61
- ST: Stability of pigment (Stability of pigment): > 98%
- solubility (Solubility of substrate): 130 mg/mL (≈ 279 mM)
- λmax: Maximum wavelength [2]: 745 nm
- amount of absorption change per minute ([4]; Serum (2), same wavelengths): 0.0395
- amount of absorption change per minute ([4]; Serum (3), same wavelengths): 0.0543
- amount of absorption change per minute ([4]; Serum (4), same wavelengths): 0.0541
- amount of absorption change per minute ([4]; Serum (5), same wavelengths): 0.0382
- amount of absorption change per minute ([4]; Serum (6), same wavelengths): 0.0437
- amount of absorption change per minute ([4]; Serum (7), same wavelengths): 0.0400
- amount of absorption change per minute ([4]; Serum (8), same wavelengths): 0.0532
- amount of absorption change per minute ([4]; Serum (9), same wavelengths): 0.0537
- amount of absorption change per minute ([4]; Serum (10), same wavelengths): 0.0476
- amount of absorption change per minute [4, 5]: 0.0454

SMILES: CC(C)C[C@H](N)C(=O)Nc1ccc(O)c(C(=O)O)c1 [(a), L-leucil-3-carboxy-4-hydroxyanilide]
- amount of absorption change per minute ([4]; Serum (2), same wavelengths): 0.0127
- amount of absorption change per minute ([4]; Serum (3), same wavelengths): 0.0198
- amount of absorption change per minute ([4]; Serum (4), same wavelengths): 0.0203
- amount of absorption change per minute ([4]; Serum (5), same wavelengths): 0.0148
- amount of absorption change per minute ([4]; Serum (6), same wavelengths): 0.0158
- amount of absorption change per minute ([4]; Serum (7), same wavelengths): 0.0153
- amount of absorption change per minute ([4]; Serum (8), same wavelengths): 0.0191
- amount of absorption change per minute ([4]; Serum (9), same wavelengths): 0.0190
- amount of absorption change per minute ([4]; Serum (10), same wavelengths): 0.0184
- amount of absorption change per minute [4, 5]: 0.0188

More lines, now with the values ahead:

- γ-GTP activity of the serum sample [1]: 236 mU/ml
- ST: Stability of pigment (Stability of pigment): > 98%
- solubility (Solubility of substrate): 170 mg/mL (≈ 421 mM)
- λmax: Maximum wavelength [2]: 740 nm
SMILES: CCN(CC(O)CS(=O)(=O)O)c1ccc(NC(=O)CC[C@H](N)C(=O)O)cc1 (stereo partly drawn) [compound 5]

- ST: Stability of pigment (Stability of pigment): > 98%
- solubility (Solubility of substrate): 90 mg/mL (≈ 232 mM)
- λmax: Maximum wavelength [2]: 740 nm
SMILES: CCN(CC(O)CS(=O)(=O)O)c1ccc(NC(=O)[C@@H](N)CC(C)C)cc1 (stereo partly drawn) [compound 6]

- amount of absorption change per minute ([4]; Serum (2), same wavelengths): 0.0095
- amount of absorption change per minute ([4]; Serum (3), same wavelengths): 0.0150
- amount of absorption change per minute ([4]; Serum (4), same wavelengths): 0.0145
- amount of absorption change per minute ([4]; Serum (5), same wavelengths): 0.0116
- amount of absorption change per minute ([4]; Serum (6), same wavelengths): 0.0126
- amount of absorption change per minute ([4]; Serum (7), same wavelengths): 0.0113
- amount of absorption change per minute ([4]; Serum (8), same wavelengths): 0.0150
- amount of absorption change per minute ([4]; Serum (9), same wavelengths): 0.0138
- amount of absorption change per minute ([4]; Serum (10), same wavelengths): 0.0133
- amount of absorption change per minute [4, 5]: 0.0158
SMILES: CCN(CC)c1ccc(NC(=O)[C@@H](N)CC(C)C)cc1 [(c), L-leucil-p-N,N-- diethylaminoanilide]
